According to the NIST ThermoML archive (doi:10.1016/j.jct.2005.09.003):

Test: xn = mol fraction of the nth substance listed
Conditions: Liquid, x1 = 1

CCCCCCCC [octane] + CCCCCCCl
mass density [kg/m3]
Conditions | 298.15 K | 308.15 K | 318.15 K | 328.15 K
100 kPa | 698.64 | 690.43 | 682.47 | 674.53
2130 kPa | 700.14 | 692.18 | 684.48 | 676.49
4150 kPa | 701.87 | 694 | 686.45 | 678.56
6180 kPa | 703.56 | 695.79 | 688.29 | 680.59
8210 kPa | 705.17 | 697.53 | 690.17 | 682.57
10230 kPa | 706.78 | 699.24 | 691.97 | 684.51
11250 kPa | 707.58 | 700.07 | 692.85 | 685.44
12260 kPa | 708.37 | 700.88 | 693.77 | 686.38
14290 kPa | 709.9 | 702.55 | 695.49 | 688.23
16310 kPa | 711.41 | 704.13 | 697.2 | 690.03
18340 kPa | 712.9 | 705.71 | 698.86 | 691.76
20370 kPa | 714.36 | 707.23 | 700.47 | 693.5
22390 kPa | 715.78 | 708.76 | 702.07 | 695.17
24420 kPa | 717.18 | 710.22 | 703.61 | 696.82
26450 kPa | 718.56 | 711.66 | 705.13 | 698.41
28470 kPa | 719.9 | 713.09 | 706.66 | 699.98
29490 kPa | 720.57 | 713.77 | 707.38 | 700.75
30500 kPa | 721.22 | 714.47 | 708.13 | 701.53
32530 kPa | 722.53 | 715.84 | 709.54 | 703.01
34550 kPa | 723.82 | 717.18 | 710.96 | 704.5
36580 kPa | 725.06 | 718.5 | 712.33 | 705.96
38600 kPa | 726.32 | 719.82 | 713.68 | 707.36
39620 kPa | 726.94 | 720.45 | 714.38 | 708.06
